The text below walks through data of ChEMBL document CHEMBL4219131, “Design and synthesis of estrogen receptor ligands with a 4-heterocycle-4-phenylheptane skeleton” (Bioorg Med Chem, 2018).

The structures appear in SMILES notation. pEC50, pIC50: −log10 of the molar value. Calls of active or inactive are those of the source. The calls are words filed in the database; no cut-off is given here.

Assay [1] concerns the target T1, Estrogen receptor (Homo sapiens, UniProt P03372).
T1 sequence (P03372 whole entry): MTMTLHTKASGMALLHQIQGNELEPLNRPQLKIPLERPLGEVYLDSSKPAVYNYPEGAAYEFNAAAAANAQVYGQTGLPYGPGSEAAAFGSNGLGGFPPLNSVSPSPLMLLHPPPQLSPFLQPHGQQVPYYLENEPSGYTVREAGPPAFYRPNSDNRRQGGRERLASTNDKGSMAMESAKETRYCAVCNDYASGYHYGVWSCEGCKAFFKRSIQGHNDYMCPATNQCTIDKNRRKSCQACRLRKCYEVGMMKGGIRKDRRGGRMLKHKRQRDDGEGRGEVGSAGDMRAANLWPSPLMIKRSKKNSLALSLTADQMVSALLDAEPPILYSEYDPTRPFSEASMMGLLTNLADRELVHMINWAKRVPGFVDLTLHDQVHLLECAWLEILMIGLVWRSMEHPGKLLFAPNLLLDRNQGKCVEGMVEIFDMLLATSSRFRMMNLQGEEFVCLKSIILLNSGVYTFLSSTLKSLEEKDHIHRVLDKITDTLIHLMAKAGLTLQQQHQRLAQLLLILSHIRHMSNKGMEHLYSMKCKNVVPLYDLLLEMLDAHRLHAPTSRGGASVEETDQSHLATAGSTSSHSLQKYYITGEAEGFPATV
The assay is described as follows: biochemical.
Description: Displacement of Fluormone ES2 from full length recombinant human untagged ERalpha expressed in Sf insect cells by fluorescence polarization assay

Assay [2] deals with T2, Estrogen receptor (Homo sapiens) (UniProt P03372).
T2 sequence (whole entry): T1 sequence (P03372 whole entry)
The assay is described as follows: Agonist activity at recombinant human GAL4-fused ERalpha expressed in HEk293 cells at 30 uM by luciferase reporter gene assay. Type of assay: cell-based. A general note: In a reporter assay the amount or activity of a reporter protein is the signal.

The target of assay [3] is T2, Estrogen receptor (Homo sapiens). The assay is described as follows: Antagonist activity at ERalpha (unknown origin) expressed in human MCF7 cells assessed as inhibition of E2-induced response at 10 uM by dual luciferase reporter gene assay. Type of assay: cell-based.
For assay [4], the target named is T1, Estrogen receptor.
Description: Antagonist activity at ERalpha (unknown origin) expressed in human MCF7 cells assessed as inhibition of E2-induced response by dual luciferase reporter gene assay
The target in assay [5] is T1, Estrogen receptor. Briefly: Agonist activity at recombinant human GAL4-fused ERalpha expressed in HEk293 cells by luciferase reporter gene assay. Type of assay: cell-based.

The pIC50 is the IC50 on a negative log10 scale, so that one unit is a factor of ten. The low end stands for a large IC50, the high end for a small IC50. In general, inhibition refers to the drop in the measured response relative to a control, in per cent. For orientation: pEC50 means the EC50 on a negative log10 scale, so that one unit is a factor of ten.

`CCCC(CCC)(c1ccc(O)c(C)c1)c1ccc(C(=O)O)n1C` had a pIC50 in assay [1] of less than 5.00. Also, in assay [2], the outcome was inactive. The inhibition result in assay [3] was “inactive”.

In turn, `CCCC(CCC)(c1ccc(O)c(C)c1)c1ccc(C(=O)O)[nH]1` gave a pIC50 in assay [1] of less than 5.00. Moreover, in assay [2], the outcome was inactive. Also, the inhibition result in assay [3] is “inactive”.

`CCCC(CCC)(c1ccc(O)c(C)c1)c1c[nH]c2cccc(OCc3ccccc3)c12` showed a pIC50 in assay [1] of less than 5.00. In addition, the outcome in assay [2] was inactive. The inhibition result in assay [3] was “inactive”.

As to `CCCC(CCC)(c1ccc(O)c(C)c1)c1c[nH]c2cc(OCc3ccccc3)ccc12`, the pIC50 in assay [1] is 6.21. Also, in assay [2], the result was inactive. In addition, the inhibition in assay [3] was 44%.

Turning to `CCCC(CCC)(c1ccc(O)c(C)c1)c1ccc(C(=O)OCC)[nH]1`, the pIC50 was 6.71 in assay [1] and 6.35 in assay [4]. Also, in assay [2], the result was inactive.

For `CCCC(CCC)(c1ccc(O)c(C)c1)c1cccs1`, the pIC50 in assay [1] is 5.33. In addition, in assay [5], the pEC50 was less than 4.52. Besides, the inhibition entry in assay [3] is “inactive”.

Regarding `CCCC(CCC)(c1ccc(O)c(C)c1)c1ccc(O)c(C)c1`, the outcome in assay [2] was inactive.

In assay [1], `CCCC(CCC)(c1ccc(O)c(C)c1)c1cc(C)cs1` gave a pIC50 of 5.95. Further, the pEC50 in assay [5] is less than 4.52. For the same compound, the inhibition result in assay [3] was “inactive”.

In the case of `CCCC(CCC)(c1ccc(O)c(C)c1)c1ccc(C(=O)OCC)n1C`, the pIC50 in assay [1] was 5.98. Also, the outcome in assay [2] was inactive. The inhibition in assay [3] was 41%.
